Here are results for 25 compounds from US8129401B2, “Heterocyclic compounds useful for the treatment of inflammatory and allergic disorders: process for their preparation and pharmaceutical compositions containing them” (Glenmark Pharmaceuticals S.A., priority 2004, dated 2012).

As a reminder, the IC50 is the midpoint of a concentration-inhibition curve.

Structures can show the parent of a compound that is named as a salt.

For the assay, the system named is PDE4 enzyme. Put plainly: Inhibition of phosphodiesterase enzymes (PDE4), [3H]cAMP hydrolysis assay. The format is biochemical. The settings on record: for percent inhibition at 1 μM: PDE4 inhibition at 1 μM compound; for IC50: PDE4 inhibition, 1 μM cAMP, 34° C.

As to `COc1ccc(C(=O)Nc2c(Cl)cncc2Cl)c2c3c(n(CC4CC4)c12)CCN(C(=O)OC(C)(C)C)C3` [Example 12, tert-butyl 9-(3,5-dichloro-4-pyridylcarbamoyl)-6-methoxy-5-cyclopropylmethyl-1,3,4,5-tetrahydro-1H-pyrido[4,3-b]indole-2-carboxylate], the “percent inhibition at 1 μM” value was 48.79% at 1 μM.

Turning to `O=C(Nc1c(Cl)cncc1Cl)c1ccc(OC(F)F)c2oc3cnncc3c12` [Example 04, N9-(3,5-dichloro-4-pyridyl)-6-difluoromethoxybenzo[4,5]furo[2,3-d]pyridazine-9-carboxamide], half-maximal inhibition (IC50) required 3.41 nM. `O=C(Nc1c(Cl)c[n+]([O-])cc1Cl)c1ccc(OC(F)F)c2oc3cnncc3c12` [Example 25, 3,5-dichloro-4-(6-difluoromethoxybenzo[4,5]furo[2,3-d]pyridazine-9-ylcarboxamido)-1-pyridiniumolate]: half-maximal inhibition (IC50) required 3.99 nM.

Take `O=C(Nc1c(Cl)cncc1Cl)c1ccc(OC(F)F)c2oc3ccncc3c12` [Example 23, N9-(3,5-dichloro-4-pyridyl)-6-difluoromethoxybenzo[4,5]furo[3,2-c]pyridine-9-carboxamide]: the midpoint of inhibition, the IC50, lay at 0.25 nM. The same measure, in the same setting: in the case of `COc1ccc(C(=O)Nc2c(Cl)cncc2Cl)c2c3c(sc12)CN(C(=O)OC(C)(C)C)CC3` [Example 07, tert-butyl 5-(3,5-dichloro-4-pyridylcarbamoyl)-8-methoxy-1,2,3,4-tetrahydrobenzo[4,5]thieno[2,3-c]pyridine-2-carboxylate] it was 416 nM. Turning to `O=C(Nc1c(Cl)cncc1Cl)c1ccc(OC(F)F)c2oc3cnncc3c12` [Example 05, N9-(3,5-dichloro-4-pyridyl)-6-difluoromethoxybenzo[4,5]furo[2,3-d]pyridazine-9-carboxamide sodium salt], for the setting “sodium salt”, the concentration for half-maximal inhibition (IC50) turned out to be 4.15 nM. For `COc1ccc(C(=O)Nc2c(Cl)cncc2Cl)c2c3c(n(Cc4ccccc4)c12)CCN(C(=O)OC(C)(C)C)C3` [Example 11, tert-butyl 9-(3,5-dichloro-4-pyridylcarbamoyl)-6-methoxy-5-benzyl-1,3,4,5-tetrahydro-1H-pyrido[4,3-b]indole-2-carboxylate], the IC50 turned out to be 177 nM.

For `COc1ccc(C(=O)Nc2c(Cl)cncc2Cl)c2c3c(oc12)CCNC3` [Example 21, N-(3,5-dichloropyridin-4-yl)-6-methoxy-1,2,3,4-tetrahydro[1]benzofuro[3,2-c]pyridine-9-carboxamide hydrochloride], the midpoint of inhibition, the IC50, lay at 20.4 nM.

Turning to `COc1ccc(C(=O)Nc2c(Cl)cncc2Cl)c2c3c(n(Cc4ccccc4)c12)CCNC3` [Example 14, N9-(3,5-dichloro-4-pyridylcarbamoyl)-6-methoxy-5-benzyl-1,3,4,5-tetrahydro-1H-pyrido[4,3-b]indole hydrochloride], the midpoint of inhibition, the IC50, lay at 3530 nM. The same measure, in the same setting: under `COc1ccc(C(=O)Nc2c(Cl)cncc2Cl)c2c3c(n(Cc4ccccc4)c12)CCN(C)C3` [Example 16, N9-(3,5-dichloro-4-pyridylcarbamoyl)-6-methoxy-2-methyl-5-benzyl-1,3,4,5-tetrahydro-1H-pyrido[4,3-b]indole] stands 2280 nM. On to `COc1ccc(C(=O)Nc2ccncc2)c2c3c(n(C)c12)CCN(C(=O)OC(C)(C)C)C3` [Example 17, tert-butyl 9-(4-pyridinylcarbamoyl)-6-methoxy-5-methyl-1,3,4,5-tetrahydro-1H-pyrido[4,3-b]indole-2-carboxylate], for which the “percent inhibition at 1 μM” value came to 33.67% at 1 μM. `COc1ccc(C(=O)Nc2c(Cl)cncc2Cl)c2c1oc1cnncc12` [Example 01, N9-(3,5-dichloro-4-pyridyl)-6-methoxybenzo[4,5]furo[2,3-d]pyridazine-9-carboxamide] registered an IC50 of 1.38 nM. Still for that read-out and setting: in the case of `COc1ccc(C(=O)Nc2c(Cl)cncc2Cl)c2c3c(oc12)CNCC3` [Example 20, N-(3,5-dichloropyridin-4-yl)-8-methoxy-1,2,3,4-tetrahydro[1]benzofuro[2,3-c]pyridine-5-carboxamide hydrochloride] it was 17.4 nM; in that of `O=C(Nc1c(Cl)c[n+]([O-])cc1Cl)c1ccc(OC(F)F)c2oc3ccncc3c12` [Example 27, 3,5-dichloro-4-(6-difluoromethoxybenzo[4,5]furo[3,2-c]pyridin-9-ylcarboxamido)-1-pyridiniumolate sodium], 2.42 nM.

With `COc1ccc(C(=O)Nc2c(Cl)cncc2Cl)c2c3c(n(C)c12)C(=O)N(C)CC3` [Example 22, N-(3,5-dichloropyridin-4-yl)-2,9-dimethyl-8-methoxy-1-oxo-1,2,3,4-tetrahydro-β-carboline-5-carboxamide], the “percent inhibition at 1 μM” value is given as 34.54% at 1 μM. With `CCOC(=O)N1CCc2c(oc3c(OC)ccc(C(=O)Nc4c(Cl)cncc4Cl)c23)C1` [Example 19, N-(3,5-dichloropyridin-4-yl)-2-(ethoxycarbonyl)-8-methoxy-1,2,3,4-tetrahydro[1]benzofuro[2,3-c]pyridine-5-carboxamide], the half-inhibitory concentration (IC50) turned out to be 7.53 nM.

For the compound `COc1ccc(C(=O)Nc2c(Cl)cncc2Cl)c2c3c(n(C)c12)CCN(C)C3` [Example 15, N9-(3,5-dichloro-4-pyridylcarbamoyl)-6-methoxy-2,5-methyl-1,3,4,5-tetrahydro-1H-pyrido[4,3-b]indole], the “percent inhibition at 1 μM” value worked out at 12.90% at 1 μM. `COc1ccc(C(=O)Nc2c(Cl)cncc2Cl)c2c1oc1ccncc12` [Example 03, N9-(3,5-dichloro-4-pyridyl)-6-methoxybenzo[4,5]furo[3,2-c]pyridine-9-carboxamide] had a half-inhibitory concentration (IC50) of 0.73 nM. As to `COc1ccc(C(=O)Nc2c(Cl)cncc2Cl)c2c1oc1cnncc12` [Example 18, N9-(3,5-dichloro-4-pyridyl)-6-methoxybenzo[4,5]furo[2,3-d]pyridazine-9-carboxamide sodium salt], for the setting “sodium salt”, the IC50 was found to be 4.08 nM. Take `O=C(Nc1c(Cl)c[n+]([O-])cc1Cl)c1ccc(OC(F)F)c2oc3ccncc3c12` [Example 26, 3,5-dichloro-4-(6-difluoromethoxybenzo[4,5]furo[3,2-c]pyridin-9-ylcarboxamido)-1-pyridiniumolate]: half-maximal inhibition (IC50) was put at 2.69 nM. As to `COc1ccc(C(=O)Nc2c(Cl)cncc2Cl)c2c3c(n(C)c12)CCN(C(=O)OC(C)(C)C)C3` [Example 10, tert-butyl 9-(3,5-dichloro-4-pyridylcarbamoyl)-6-methoxy-5-methyl-1,3,4,5-tetrahydro-1H-pyrido[4,3-b]indole-2-carboxylate], the “percent inhibition at 1 μM” value stood at 27.74% at 1 μM. For `O=C(Nc1c(Cl)cncc1Cl)c1ccc(OC(F)F)c2oc3ccncc3c12` [Example 24, N9-(3,5-dichloro-4-pyridyl)-6-difluoromethoxybenzo[4,5]furo[3,2-c]pyridine-9-carboxamide sodium], where the note is “sodium”, it took 0.02 nM to reach half-maximal inhibition (IC50).

“N9-(3,5-dichloro-4-pyridylcarbamoyl)-6-methoxy-5-methyl-1,3,4,5-tetrahydro-1H-pyrido[4,3-b]indole hydrochloride [Example 13]”: the “percent inhibition at 1 μM” value came out at 20.99% at 1 μM. Take `COc1ccc(C(=O)Nc2c(Cl)cncc2Cl)c2c1oc1cncnc12` [Example 02, N9-(3,5-dichloro-4-pyridyl)-6-methoxybenzo[4,5]furo[3,2-d]pyrimidine-9-carboxamide]: half-maximal inhibition (IC50) was put at 494 nM.

As to `COc1ccc(C(=O)Nc2c(Cl)cncc2Cl)c2c3c(sc12)CNCC3` [Example 08, N5 (3,5-dichloro-4-pyridyl)-8-methoxy-1,2,3,4-tetrahydrobenzo[4,5]thieno[2,3-c]pyridine-5-carboxamide hydrochloride], the “percent inhibition at 1 μM” value stood at 31.75% at 1 μM.
